Data set [1] concerns primary heart muscle cells from newborn rats. Kind of data set: Inhibitory activity on heart muscle cell apoptosis (serum-free culture, viable cell number by WST-8). The class given is cell-based, Wister rats. Particulars: Rattus norvegicus, 96 h; mean of three independent experiments; concentration required to increase the mean viable cell number by 50% as compared with that in the absence of test compounds; serum-free Medium 199, 4 days. From the text:
Inhibitory Activity on Heart Muscle Cell Apoptosis
Newborn rats (within 1 day afterbirth) were obtained from pregnant Wister rats purchased from Charles River, anesthetized under ether, and sterilized with 70% ethanol, and then their hearts were excised with tweezers. The excised hearts were washed with a phosphate-buffered physiological saline (T900; Takara) and cut into pieces with surgical scissors. These tissue pieces were washed 4 to 5 times with a phosphate-buffered physiological saline to remove a majority of blood-derived non-heart muscle cells. To the tissue pieces derived from 10 newborns, 5 ml of enzyme solution (1.25 mg trypsin (Difco) and 0.25 mg collagenase (Sigma) per ml of phosphate-buffered saline (PBS)) was added and the mixture was stirred with a stirrer at 37° C. for 15 minutes. Another 2.5 ml enzyme solution was then added twice repeatedly at a 15-minutes interval. Then, Medium 199 (Gibco) containing 10% fetal calf serum (Biowiker) was added in a half volume of the enzyme solution to terminate the enzyme reaction. The cells were filtered through a Cell Strainer (Falcon) and then centrifuged at 400×g for 5 minutes, whereby the cells were collected.
The cells thus collected from 10 newborns were suspended in 50 ml Medium 199 containing 10% fetal calf serum, plated onto 100 mm Petri dishes (Iwaki) in a volume of 10 ml/dish and cultured for 1 hour in a CO2 incubator set at 5% CO2 and 37° C. The cells were then recovered, filtered through a Cell Strainer and centrifuged at 400×g for 5 minutes to collect the primary heart muscle cells derived from newborn rats.
Then, the heart muscle cells from 10 newborn rats were suspended in 2 ml low-isotonic solution (prepared by dissolving 8.29 g NH4Cl, 1.0 g KHCO3, 37 mg EDTA/2Na (ethylenediaminetetraacetic acid disodium) (Dojindo) in 1 L of water) and left for 3 minutes to disrupt erythrocytes. After 10 ml Medium 199 containing 10% fetal calf serum was added thereto, the primary heart muscle cells from newborn rats were collected by centrifugation at 400×g for 5 minutes. The cells were suspended in Medium 199 containing 10% fetal calf serum and then filtered through a cell strainer. After 0.3% trypan blue was added to, and mildly mixed with, an aliquot of the resulting cell suspension, the number of heart muscle cells was counted on an erythrocyte counting plate.
The primary heart muscle cells from newborn rats were suspended at a density of 3×10^6 cells/ml in Medium 199 containing 10% fetal calf serum, put onto a 96-well plate in a volume of 0.1 ml/well, and then cultured in a CO2 incubator set at 5% CO2 and 37° C. After the plate was stirred with a micromixer (Taiyo Kagaku Kogyo), the medium was exchanged 3 times with serum-free Medium 199, and then test compounds were added thereto. The cells were cultured for additional 4 days to induce apoptosis. Then, fetal calf serum was added thereto at a concentration of 10%, and the cells were further cultured for about 17 hours in a CO2 incubator set at 5% CO2 and 37° C. Finally, the number of viable cells was determined with Cell Counting Kit (Dojindo) using WST-8 (2-(2-methoxy-4-nitrophenyl)-3-(4-nitrophenyl)-5-(2,4-disulfophenyl)-2H-tetrazolium, monosodium salt) as the coloring substrate to determine the inhibition of the heart muscle cell apoptosis.
The above-mentioned experiment was triplicated in an independent manner.
The Mean minimal effective concentration (±SD) was shown for each test compound (Compounds 1 to 5 obtained in Reference Examples) in Table 1. In Table 1, the minimal effective concentration is defined as the concentration required to increase the mean viable cell number by 50% as compared with that in the absence of test compounds.

Structures are written as SMILES.

`CN(C(=O)c1cccs1)c1cccc(-c2nc(=O)c3ccccc3s2)n1` [Example 111, N-Methyl-N-[6-(4-oxo-4H-1,3-benzothiazin-2-yl)-2-pyridyl]-2-thiophenecarboxamide]: the melting point lay in the range of 191.5 to 192.9 °C. The compound also yielded a minimal effective concentration in data set [1] of 0.037 µM.

In turn, `CN(C(=O)c1ccco1)c1cccc(-c2nc(=O)c3ccccc3s2)n1` [Example 112, N-Methyl-N-[6-(4-oxo-4H-1,3-benzothiazin-2-yl)-2-pyridyl]-2-furamide] yielded a melting point of 186.2 to 187.2 °C. This compound also showed a minimal effective concentration in data set [1] of 0.051 µM.

Turning to `CN(C(=O)c1ccccc1)c1cccc(-c2nc(=O)c3ccccc3s2)n1` [Example 113, N-Methyl-N-[6-(4-oxo-4H-1,3-benzothiazin-2-yl)-2-pyridyl]benzamide], the melting point fell in the range of 234 to 235.4 °C. Besides, in data set [1], the minimal effective concentration stood at 0.022 µM.

In turn, `CN(C(=O)C1CCCCC1)c1cccc(-c2nc(=O)c3ccccc3s2)n1` [Example 115, N-methyl-N-[6-(4-oxo-4H-1,3-benzothiazin-2-yl)-2-pyridyl]cyclohexanecarboxamide] displayed a melting point of 184.4 to 185.8 °C. In addition, the minimal effective concentration in data set [1] was 0.052 µM.

Regarding `CCSc1cccc(-c2nc(=O)c3ccccc3s2)n1` [Example 126, 2-[6-(Ethylthio)-2-pyridyl]-4H-1,3-benzothiazine-4-one], the melting point was 161.3 to 162 °C. The minimal effective concentration in data set [1] amounted to 0.032 µM.

The compound `CC(C)Sc1cccc(-c2nc(=O)c3ccccc3s2)n1` [Example 127, 2-[6-(Isopropylthio)-2-pyridyl]-4H-1,3-benzothiazine-4-one] yielded a melting point of 185.4 to 185.8 °C. This compound displayed a minimal effective concentration in data set [1] of 0.04 µM.

`CC(C)(C)Sc1cccc(-c2nc(=O)c3ccccc3s2)n1` [Example 128, 2-[6-(tert-Butylthio)-2-pyridyl]-4H-1,3-benzothiazine-4-one]: the melting point was in the range of 152.9 to 153.8 °C. In data set [1], the minimal effective concentration stood at 0.081 µM.

As to `CN(C)CCSc1cccc(-c2nc(=O)c3ccccc3s2)n1` [Example 133, 2-{[6-[2-(N,N-Dimethylamino)ethyl]thio]-2-pyridyl}-4H-1,3-benzothiazine-4-one], the melting point is 154.8 °C (dec.). For the same compound, the minimal effective concentration in data set [1] is 0.06 µM.

`CCOc1cccc(-c2nc(=O)c3ccccc3s2)n1` [Example 134, 2-(6-Ethoxy-2-pyridyl)-4H-1,3-benzothiazine-4-one] came in with a melting point of 179.5 to 180 °C. The compound also registered a minimal effective concentration in data set [1] of 0.095 µM.
